We go through 13 compounds from US5162336A, “Tetrahydro-pyrido-indoles as cholecystokinin and gastrin antagonists” (Rhone-Poulenc Rorer Pharmaceuticals Inc., priority 1990, dated 1992).

The structures appear in SMILES notation.

The assay has as its target T1, CCK-A receptor (Rattus norvegicus, UniProt P30551).
T1 construct: from tissue; host or cells: pancreas membranes of Sprague-Dawley rat
T1 sequence (P30551 1-444): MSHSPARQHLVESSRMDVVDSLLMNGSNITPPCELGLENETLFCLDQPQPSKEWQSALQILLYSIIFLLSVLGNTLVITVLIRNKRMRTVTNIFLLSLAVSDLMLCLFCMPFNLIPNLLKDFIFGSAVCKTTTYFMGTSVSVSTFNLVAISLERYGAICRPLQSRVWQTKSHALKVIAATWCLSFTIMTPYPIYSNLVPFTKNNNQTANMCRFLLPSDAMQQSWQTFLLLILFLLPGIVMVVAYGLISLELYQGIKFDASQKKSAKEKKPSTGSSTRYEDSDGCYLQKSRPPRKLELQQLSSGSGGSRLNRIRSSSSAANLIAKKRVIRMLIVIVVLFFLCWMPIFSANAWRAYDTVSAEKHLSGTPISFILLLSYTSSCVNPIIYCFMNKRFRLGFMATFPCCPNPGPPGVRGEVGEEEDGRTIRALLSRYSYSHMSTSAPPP
Kind of assay: CCK-A receptor binding assay (displacement of 3H-L-364,718 from rat pancreas membranes). Also on record: species or system Sprague-Dawley rat. The following applies: 3H-L-364,718 0.2 nM, 37° C., 30 min, read-out: In vitro Binding Data IC50 CCK. In short, it runs like this:
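Rat pancreas membranes incubated 30 min at 37 °C with 0.2 nM 3H-L-364,718 in 50 mM Tris pH 7.7, 5 mM MgCl2, 5 mM DTT, 0.14 mg/ml bacitracin, 2 mg/ml BSA. Nonspecific binding defined by 300 nM unlabeled L-364,718; rapid filtration and scintillation counting, triplicates.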
On the technique in general: In a radioligand displacement assay an active substance lowers the binding of a labelled ligand.
For the compound `CC(C)C[C@H](NC(=O)[C@H]1Cc2c([nH]c3ccccc23)CN1C(=O)Nc1ccc(Cl)cc1)C(=O)N[C@@H](CC(=O)O)C(N)=O` [Example 55, N-[(3R)-2-(4-chlorophenylcarbamoyl)-1,2,3,4-tetrahydro-9H-pyrido[3,4-b]indole-3-carboxyl]-L-leucyl-L-asartic acid amide], the IC50 (in general, the concentration that gives 50% inhibition) amounted to 48 µM.
For `Cc1cccc(NC(=O)N2Cc3[nH]c4ccccc4c3C[C@@H]2C(=O)NCC(=O)N[C@@H](CC(=O)O)C(N)=O)c1` [Example 56, N-[(3R)-2-(3-methylphenylcarbamoyl)-1,2,3,4-tetrahydro-9H-pyido[3,4-b]indole-3-carboxyl]glycyl-L-aspartic acid amide] the value was 34 µM; for `Cc1cccc(NC(=O)N2Cc3[nH]c4ccccc4c3C[C@@H]2C(=O)N[C@H](CC(C)C)C(=O)N[C@@H](CC(=O)O)C(N)=O)c1` [Example 57, N-[(3R)-2-(3-methylphenylcarbamoyl)-1,2,3,4-tetrahydro-9H-pyrido[3,4-b]indole-3-carboxyl]-D-leucyl-L-aspartic acid amide], 100 µM.
For `Cc1cccc(NC(=O)N2Cc3[nH]c4ccccc4c3C[C@@H]2C(=O)N[C@@H](C)C(=O)N[C@@H](CC(=O)O)C(N)=O)c1` [Example 58] the value was 65 µM.
As to `CC(C)C[C@H](NC(=O)[C@H]1Cc2c([nH]c3ccccc23)CN1C(=O)Nc1cc(Cl)cc(Cl)c1)C(=O)N[C@@H](CC(=O)O)C(N)=O` [Example 59, N-[(3R)-2-(3,5-dichlorophenylcarbamoyl)-1,2,3,4-tetrahydro-9H-pyrido[3,4-b]indole-3-carboxyl]-L-leucyl-L-aspartic acid amide], the IC50 turned out to be 34 µM.
On to `Cc1cc(C)cc(NC(=O)N2Cc3[nH]c4ccccc4c3C[C@@H]2C(=O)N[C@@H](CC(C)C)C(=O)N[C@@H](CC(=O)O)C(N)=O)c1` [Example 60, N-[(3R)-2-(3,5-dimethylphenylcarbamoyl)-1,2,3,4-tetrahydro-9H-pyrido[3,4-b]indole-3-carboxyl]-L-leucyl-L-aspartic acid amide], for which the IC50 is 65 µM.
For `COc1cccc(NC(=O)N2Cc3[nH]c4ccccc4c3C[C@@H]2C(=O)N[C@@H](CC(C)C)C(=O)N[C@@H](CC(=O)O)C(N)=O)c1` [Example 61] the value was above 100 µM; for `CC(C)C[C@H](NC(=O)[C@H]1Cc2c([nH]c3ccccc23)CN1C(=O)Nc1ccc2ccccc2c1)C(=O)N[C@@H](CC(=O)O)C(N)=O` [Example 62], 9.3 µM.
For `CC(C)C[C@H](NC(=O)[C@H]1Cc2c([nH]c3ccccc23)CN1C(=O)Nc1cccc(C(F)(F)F)c1)C(=O)N[C@@H](CC(=O)O)C(N)=O` [Example 63], the IC50 worked out at 86 µM.
With `Cc1cccc(NC(=O)N2Cc3[nH]c4ccccc4c3C[C@@H]2C(=O)N[C@@H](COCc2ccccc2)C(=O)N[C@@H](CC(=O)O)C(N)=O)c1` [Example 64], the IC50 is 29 µM.
As to `CC(C)C[C@H](NC(=O)[C@H]1Cc2c([nH]c3ccccc23)CN1C(=O)Nc1cccc(F)c1)C(=O)N[C@@H](CC(=O)O)C(N)=O` [Example 65], the IC50 is above 100 µM.
The same measure for `CC(C)C[C@H](NC(=O)[C@H]1Cc2c([nH]c3ccccc23)CN1C(=O)Nc1ccc(Cl)c(Cl)c1)C(=O)N[C@@H](CC(=O)O)C(N)=O` [Example 66]: 24 µM; for `CC(C)C[C@H](NC(=O)[C@H]1Cc2c([nH]c3ccccc23)CN1C(=O)Nc1cccc2ccccc12)C(=O)N[C@@H](CC(=O)O)C(N)=O` [Example 67, N-[(3R)-2-(1-naphthylcarbamoyl)-1,2,3,4-tetrahydro-9H-pyrido[3,4-b]indole-3-carboxyl]-L-leucyl-L-aspartic acid amide]: 100 µM.
